Data set [1] is described as follows: Pharmacokinetic assessment in mice (serum, LC-MS/MS). Type of data set: in vivo, C57BL/6 mice. The conditions noted are these: for Cmax / half-life / AUC: female, 200 mg/kg single dose; for Cmax / half-life: C57BL/6, mouse, serum; for AUC: C57BL/6, mouse serum. The procedure:
C57BL/6 mice were treated with lolamcyin at a single dose of 200 mg/kg via IP injection (formulated in 50% DMSO and 50% PEG400) or oral gavage (formulated in 20% DMSO, 30% water, and 50% PEG400) with three mice per time point (0, 15, 30, 45, 60, 120, 240, 480, 960, and 1,440 min). Mice were then sacrificed and serum concentrations of lolamycin were determined by liquid chromatography-tandem mass spectrometry (LC-MS/MS). Oral bioavailability was calculated by comparing the concentration of lolamycin in mouse serum levels resulting from these two administration routes.
Pharmacokinetic Assessment of compound 2 and lolamycin. The protocol was approved by the Institutional Animal Care and Use Committee (IACUC) at the University of Illinois at Urbana-Champaign. In these studies, 10- to 12-week-old female C57BL/6 mice purchased from Charles River Laboratories were used. Mice were randomly chosen and divided into subsequent groups. No additional randomization was used to allocate the experimental groups; blinding was not performed for subsequent quantitation. First, the pharmacokinetic assessment via intraperitoneal injection was determined. Compound 2 and lolamycin were formulated in 50% DMSO and 50% PEG400. Mice were treated with compound 2 (200 mg/kg) or lolamycin (200 mg/kg) via intraperitoneal injection, with three mice per time point (0, 15, 30, 45, 60, 120, 240, 480, 960, and 1,440 min). At the specified time points, mice were killed, blood was collected and centrifuged, and the serum was frozen at −80° C. until analysis. The proteins in a 10-μL aliquot of serum were precipitated by the addition of 50 μL methanol with the addition of 10 μL internal standard. The sample was then vortexed and centrifuged to remove the proteins. Supernatants were analyzed with the QTRAP 5500 LC/MS/MS system (Sciex) in the Metabolomics Laboratory of the Roy J. Carver Biotechnology Center, University of Illinois at Urbana-Champaign.
Next, the pharmacokinetic assessment via oral gavage was determined. Lolamycin was formulated in 20% DMSO, 30% water, and 50% PEG400. Mice were treated with lolamycin (200 mg/kg) via oral gavage, with three mice per time point (0, 15, 30, 45, 60, 120, 240, 480, 960, and 1,440 min). At the specified time points, mice were killed, blood was collected and centrifuged, and the serum was frozen at −80° C. until analysis similar to before. Software Analyst 1.6.2 was used for data acquisition and analysis. The 1200 Series HPLC system (Agilent Technologies) includes a degasser, an autosampler and a binary pump. The liquid chromatography separation was performed on an Agilent Zorbax SB-Aq column (4.6×50 mm; 5 μm) with mobile phase A (0.1% formic acid in water) and mobile phase B (0.1% formic acid in acetonitrile). The autosampler was set at 10° C. The injection volume was 5 μL. Mass spectra were acquired using electrospray ionization with a voltage of 5,500 V. The source temperature was 450° C. The curtain gas, ion source gas 1 and ion source gas 2 were […], respectively. Multiple reaction monitoring was used for quantitation with external standard. The limit of quantitation of (S/N=10) was 1 nM. Pharmacokinetic parameters were calculated with a one-compartment model using a nonlinear regression program (Phoenix WinNonlin Version 8.1; Certara USA).

The test system of another data set is Bifidobacterium longum. As to the kind of experiment: MIC, gut commensal bacteria, micro-dilution broth. For orientation: In broth dilution the organism is exposed to a series of concentrations in liquid medium.
In data set [2] the test system is Streptococcus parasanguinis. As to the kind of experiment: MIC, gut commensal bacteria, micro-dilution broth.
For data set [3], the system named is Stenotrophomonas maltophilia. The experiment in a line: MIC, gut commensal bacteria, micro-dilution broth.
Another data set concerns K. pneumoniae ATCC 27736. As to the kind of experiment: Resistance frequency, large inoculum method. Particulars: wild-type K. pneumoniae ATCC 27736, 8×MIC. The data set is classed as cell-based, Klebsiella pneumoniae. The procedure:
Selection of resistant mutants. Resistant mutants were selected using the large inoculum method. Briefly, E. coli BW25113, K. pneumoniae ATCC 27736, or E. cloacae ATCC 29893 (˜1.0×10^7 c.f.u.) was plated on 100-mm plates of Luria Bertani agar containing 8, 16, 32, or 64 μg/mL, lolamycin. For E. coli ΔtolC (JW5503), ˜1.0×10^7 c.f.u. was plated on 100-mm plates of Luria Bertani agar containing 0.063, 0.13, 0.25, 0.5 μg/mL lolamycin. Colonies were visible after incubating at 37° C. for 48 h. Resistant colonies were confirmed by growing colonies in selective media with the same concentration of lolamycin.

In another data set the test system is HFF-1 cells. The experiment in a line: Cell viability (Alamar Blue), mammalian cell line. Particulars: Homo sapiens, HFF-1, 24 h, read-out: IC50, mammalian cell lines. The data set is classed as cell-based. How it is done:
(§1) Cell culture. HFF-1 cells (newborn) were obtained from the ATCC. […] A-549 cells (adult) were obtained from the ATCC. […] All cells were cultured at 37° C. under a 5% CO2 environment. Cell lines were authenticated externally by a commercial vendor and inspected visually in house. Cell lines were not tested for Mycoplasma contamination. The media was prepared by the University of Illinois School of Chemical Sciences Cell Media Facility. Cell viability. HFF-1 cells were seeded (8,000 cells/well) in a 96-well plate (Greiner Bio-One; catalogue number: 655180) and allowed to attach overnight. Cells were treated with investigational compounds in dimethyl sulfoxide (DMSO). […] Raptinal (100 μM) was used as a dead control. On each plate, at least three technical replicates per compound were performed. After 24 h post-treatment, cell viability was assessed using the Alamar Blue method. Stock Alamar Blue solution (10 μL 440 μM resazurin (Sigma-Aldrich; catalogue number: R7017) in sterile 1×PBS) was added to each well, and the plate was incubated for 3-4 h. Conversion of Alamar Blue was measured with a plate reader (SpectraMax M3; Molecular Devices) by fluorescence (excitation wavelength: 555 nm; emission wavelength: 585 nm; cutoff 570 nm; autogain). Percentage death was determined by normalizing to DMSO-treated cells and Raptinal-treated cells. […]
In general terms: Resazurin is reduced to fluorescent resorufin, in cell work by metabolically active cells.

The subject of a further data set is A-549 cells. As to the kind of experiment: Cell viability (Alamar Blue), mammalian cell line. The conditions noted are these: Homo sapiens, A549, read-out: IC50, mammalian cell lines (converted). Type of data set: cell-based. The procedure: as §1

Each structure is given as a SMILES string.

By Cmax is commonly meant the maximum level reached in the sampled fluid or tissue. What is called half-life is the time needed for the level to fall by half in the phase considered. What is called AUC is concentration integrated over time. A word on the MIC: it is the lowest concentration found to suppress growth. Read a high MIC as a less susceptible organism. A word on the IC50: it is the concentration needed to halve the response being measured.

On to `Cc1cc(-c2c[nH]nc2-c2cccc(OCc3cccc(C#N)c3)c2)cc(C)n1` [Compound 12, 3-((3-(4-(2,6-dimethylpyridin-4-yl)-1H-pyrazol-3-yl)phenoxy)methyl)benzonitrile], for which the Cmax in data set [1] (IP injection) stood at 38.2 µM; in data set [1] (oral gavage), 26.4 µM. The half-life in data set [1] (IP injection) is 2.07 h; in data set [1] (oral gavage), 1.1 h. Moreover, the AUC in data set [1] (IP injection) is 43400 ng·h/mL; in data set [1] (oral gavage) it was 20500 ng·h/mL. Moreover, the Oral bioavailability result in data set [1] (mice, oral vs IP, 200 mg/kg) is listed as “significant oral bioavailability”. Moreover, the MIC was above 128 µg/mL against Bifidobacterium longum (Bifidobacterium longum ATCC BAA-999, BHI-ych, listed as Lolamycin); above 128 µg/mL against Bifidobacterium longum (Bifidobacterium longum, ATCCBAA999); above 128 µg/mL in data set [2] (Streptococcus parasanguinis); above 128 µg/mL in data set [2] (Streptococcus parasanguinis KLE 2375, BHI-ych, listed as Lolamycin); above 128 µg/mL in data set [3] (Stenotrophomonas maltophilia ATCC 13637, BHI-ych, listed as Lolamycin); above 128 µg/mL in data set [3] (Stenotrophomonas maltophilia, ATCC13637). Besides, in the data set on K. pneumoniae ATCC 27736, the resistance frequency is 1.2×10^−8. The IC50 is 85.3 ± 11.8 µM with HFF-1 cells and 41.9 µM with A-549 cells.

Source of the values: patent US20250051300A1, “GRAM-NEGATIVE SPECIFIC ANTIBIOTICS SPARING EFFECT ON GUT MICROBIOME” (THE BOARD OF TRUSTEES OF THE UNIVERSITY OF ILLINOIS, priority 2021, published 2025).
